In patent publication US20150216848A1, “COMPOUNDS THAT INHIBIT TAU PHOSPHORYLATION” (THE TRANSLATIONAL GENOMICS RESEARCH INSTITUTE, priority 2010, published 2015):
Entries after “also recorded” stand apart in the source; their conditions may differ. Where two headings read alike, the source gives them in different places.

Tests used:
H4 neuroglioma cell line = test: Viability (toxicity) assay, alamar Blue; format: cell-based; details: for effect on the viability of the cells at the lower doses: 9-ethylharmine 1 μM, harmine 0.8 μM; for IC50: read-out: IC50 for viability (toxicity)
[1] = system: total tau and phosphorylated tau (12E8 pS262/pS356, pT231, pS396) in 4R0N tau overexpressing H4 neuroglioma cells; test: Cell culture tau assay (Western blot of total and phosphorylated tau); format: cell-based; details: for effects in the cell-based tau assay: FIG. 3; for phosphorylated forms of tau (12E8 pS262/pS356, pT231, pS396): H4-tau cells, 80 nM, 800 nM and 8 μM, 96 hours; for total tau and phosphorylated forms of tau: doses up to 500 μM
recombinant human DYRK1A = biological target: T1, recombinant human DYRK1A (Homo sapiens, UniProt Q13627); format: biochemical; details: for IC50: recombinant DYRK1A and 4R2N tau, 1 mM ATP, read-out: IC50, inhibition of DYRK1A dependent tau phosphorylation at serine 396
T1 construct: purchased Invitrogen (DYRK1A); SignalChem (tau)

[2] = system: spatial working memory and short-term memory retention; test: Delayed-match-to-sample asymmetrical 3-choice task; format: in vivo, rat
Excerpt: (§1) Twenty-six 17 month-old Fischer-344 male rats raised at the National Institute on Aging colony at Harlan Laboratories (Indianapolis, Ind.) were used in the study. After arrival, rats were pair-housed, had food and water ad-lib, and were maintained on a 12-h light/dark cycle. Procedures were approved by the Institutional Animal Care and Use Committee, and adhered to National Institutes of Health standards.
(§2) Rats were randomly divided into three treatment groups (n at start of study, m included in final behavioral analyses): vehicle (10, 10), low-Harmine 1 mg/kg (10, 10), or high-Harmine 5 mg/kg (10, 6). […]
Spatial working memory and short-term memory retention were evaluated using a win-stay water-escape DMS asymmetrical place-learning task. […] Entry into any non-platformed arm was counted as an error. An arm entry was counted when the tip of a rat's snout reached a mark on the outside of the arm (not visible from the inside of the maze; 11 cm into the arm).
In an initial analysis, Harmine-low and Harmine-high groups were compared. […] DMS data were analyzed with an omnibus ANOVA with treatment as the between groups variable and total number of errors for each trial as repeated measures. MM data were analyzed with an omnibus ANOVA with treatment as the between groups variable and swim distance (cm) to the platform as repeated measures. […]

spatial reference memory = test: Morris water maze; format: in vivo, rat; details: rats
Excerpt: as §1, §2
Spatial reference memory was evaluated using the Morris Maze. […] A video camera and tracking system tracked and measured each rat's swim pathway.
(§3) In an initial analysis, Harmine-low and Harmine-high groups were compared. […] DMS data were analyzed with an omnibus ANOVA with treatment as the between groups variable and total number of errors for each trial as repeated measures. MM data were analyzed with an omnibus ANOVA with treatment as the between groups variable and swim distance (cm) to the platform as repeated measures. […] Visible platform data were further analyzed using a regression analysis with testing squad (1-3) as the predictor and mean escape latency across trials 1-6 as the criterion. […]

[3] = system: motor and visual competence; test: Visible platform task and observed motor side effects; format: in vivo, rat; details: rats
Excerpt: as §1
Rats were randomly divided into three treatment groups (n at start of study, m included in final behavioral analyses): vehicle (10, 10), low-Harmine 1 mg/kg (10, 10), or high-Harmine 5 mg/kg (10, 6). Nine days after arrival, animals started receiving daily subcutaneous injections at a volume of 1 ml/kg. […] Behavioral testing began after the second injection day, testing commenced approximately 30-45 minutes after injections and lasted for 6-8 hours. Animals were assigned semi-randomly to one of three testing squads of 10 animals each balanced with respect to treatment group.
Four days after MM testing, motor and visual competence were evaluated using the visible platform task. This was an adaptation of the cue-navigation version of the spatial MM task previously used to dissociate visual and motor acuity from place memory. This task was ideal due to its similarity to other spatial water-maze tasks with respect to motor and visual requirements, differing only in that animals are not required to associate the location of the platform with distal cues. […]
as §3

CCn1c2cc(OC)ccc2c2ccnc(C)c21 [9-ethyl harmine]
effect on the viability of the cells at the lower doses (H4 neuroglioma cell line): no detectable effect | IC50 (H4 neuroglioma cell line): 9 µM | reducing total tau and phosphorylated tau levels ([1]; 1 μM): significant reductions | reducing total tau and phosphorylated tau levels ([1]; dose of 10 μM): significant effects | IC50 (recombinant human DYRK1A): 0.4 µM

COc1ccc2c3c([nH]c2c1)C(C)=NCC3 [harmaline]
IC50 (H4 neuroglioma cell line): 56 µM | effects in the cell-based tau assay [1]: relatively muted effects | affinity relative to harmine in the in vitro phosphorylation assay (recombinant human DYRK1A): more than an order of magnitude lower in affinity than harmine

Cc1nccc2c1[nH]c1ccccc12 [harmane]
IC50 (H4 neuroglioma cell line): 32 µM | effects in the cell-based tau assay [1]: relatively muted effects | affinity relative to harmine in the in vitro phosphorylation assay (recombinant human DYRK1A): more than an order of magnitude lower in affinity than harmine

COc1ccc2c(c1)[nH]c1c(C)nccc12 [harmine]
effect on the viability of the cells at the lower doses (H4 neuroglioma cell line): no detectable effect | IC50 (H4 neuroglioma cell line): 12 µM | reducing total tau and phosphorylated tau levels ([1]; 0.8 μM): significant reductions | levels of total tau protein ([1]; 0.8 μM and 8 μM): reduce the levels of total tau protein | phosphorylated forms of tau (12E8 pS262/pS356, pT231, pS396) [1]: dose-dependent reduction | phosphorylated forms of tau (12E8 pS262/pS356, pT231, pS396) ([1]; listed as Harmine): reduced the expression of each phospho-tau species tested | reducing total tau and phosphorylated tau levels ([1]; dose of 10 μM): significant effects | total errors on the DMS task, testing block 4 (Days 8-9), trials 2-6 ([2]; 17 month-old Fischer-344 male rats, 1 and 5 mg/kg daily subcutaneous, groups combined, vs vehicle, P=0.03): enhanced working and short-term memory; also recorded: fewer total errors | DMS task, testing blocks 1, 2 or 3 ([2]; rats, 1 and 5 mg/kg s.c. combined): no main effects | Morris maze distance swam to the platform, days 1-3 (spatial reference memory; 1 and 5 mg/kg s.c.): no Harmine treatment main effects | effect on spatial reference memory (spatial reference memory; doses tested 1 and 5 mg/kg s.c.): no significant effect | decrease of mean escape latency with each squad tested (visible platform task) ([3]; Harmine-high 5 mg/kg s.c.): roughly 11.6 seconds | duration of motor impairments after injections ([3]; Harmine-high 5 mg/kg s.c.): 1 to 2 h | motoric effects ([3]; harmine treatment): obvious motoric effects

O=C(NCCN1CCOCC1)c1ccc(Cl)cc1 [moclobemide, reference compound]
total tau and phosphorylated forms of tau [1]: did not affect tau phosphorylation | total tau and phosphorylated forms of tau ([1]; listed as Moclobemide): did not reduce levels

c1ccc2c(c1)[nH]c1cnccc12 [norharmane]
IC50 (H4 neuroglioma cell line): 95 µM | effects in the cell-based tau assay [1]: relatively muted effects | affinity relative to harmine in the in vitro phosphorylation assay (recombinant human DYRK1A): more than an order of magnitude lower in affinity than harmine

harmol
IC50 (H4 neuroglioma cell line; H4 neuroglioma cell line, alamar Blue, fresh drug every 24 hours for 4 days): 18 µM | reducing total tau and phosphorylated tau levels ([1]; dose of 10 μM): significant effects | IC50 (recombinant human DYRK1A): 0.09 µM
